Reference: US20260327263A1, “Anti-Bacterial Peptides” (priority 2023, published 2026)
In brackets after ≈: the same amount, converted by molar mass. Where a SMILES comes first, the peptide text is derived from it. Where no end group is shown, it is not given here. [ ]: non-standard residue; d: D form. Bip = N[C@@H](Cc1ccc(-c2ccccc2)cc1)C(=O)O; 1Nal = N[C@@H](Cc1cccc2ccccc12)C(=O)O; 2Nal = N[C@@H](Cc1ccc2ccccc2c1)C(=O)O; Aib = CC(C)(N)C(=O)O

What was measured:
[1] = tested on: Pseudomonas aeruginosa (PA); assay: Broth microdilution anti-bacterial assay (CLSI), Pseudomonas aeruginosa; type: cell-based, Pseudomonas aeruginosa (ATCC 14213); details: for MIC / MBC: PA; for MIC: overnight, 37° C., ≥99% inhibition; for MBC: ≥99% killing; for anti-bacterial activity (in words): PA and SA
Method: (§1) To evaluate their anti-bacterial potency, broth microdilution method as per the CLSI guidelines 1 was used. […] The anti-bacterial potency of the tested agents is quantified using minimum inhibitory concentration (MIC) and minimum bactericidal concentration (MBC). […] To obtain the MBC data, 1X, 2X and 4× MIC of the peptide variants were plated to obtain the number of viable colonies compared to the original inoculum.
(§2) Pseudomonas aeruginosa (ATCC 14213, PA), and methicillin resistant Staphylococcus aureus (BAA1717-USA 300, SA) were obtained from The American Type Culture Collection (ATCC).
(§3) Examination of the potency of modified short peptides against PA and SA strains was performed by using the broth microdilution protocol from the Clinical and Laboratory Standards Institute (CLSI) guidelines (CLSI 2012) as described. Briefly, five freshly plated bacteria colonies were grown in cation adjusted MH2 broth (BD Biosciences) in a shaker incubator at 37° C., 220 RPM. Cells were grown to an optical density (OD600) of ~0.2 measured using a Microplate Spectrophotometer (Molecular Devices Spectra Max Plus). 100 μL of microbial culture containing ~5×10^5 CFU/mL of bacteria in the respective broths were introduced into each well containing 100 μL of peptides and incubated overnight at 37° C. Next, to check the bactericidal effects, 100 μL from each well was transferred and spread on sterile MH2 agar plates. The plates were incubated overnight at 37° C. and the number of colonies forming units (CFU) were calculated the following day. Readings of bacteria grown in media without any treatments were normalized to 100% as media control. For the mixed infection study, three freshly plated bacteria colonies each from PA, SA and ST plates were grown together in cation adjusted MH2 broth and proceeded as described above.

[2] = tested on: Staphylococcus aureus (SA); assay: Broth microdilution anti-bacterial assay (CLSI), Staphylococcus aureus; type: cell-based; details: SA; for MIC: overnight, 37° C., ≥99% inhibition; for MBC: ≥99% killing
Method: as §1, §2, §3

| Compound | MIC [1] [µM] | MBC [1] [µM] | MIC [2] [µM] | MBC [2] [µM] | anti-bacterial activity (in words) [1] |
| --- | --- | --- | --- | --- | --- |
| KKLLKKWVKLSKKALKLA-NH2 [E1AM2 C-3] | 6.25 | – | – | – | – |
| KKLLKKWVKLSKKLLKLAQSL-NH2 [A14L] | 12.5 | 12.5 | 6.25 | 6.25 | – |
| KKLLKKWVKLSKKALKLKQSL-NH2 [A18K] | 12.5 | 25 | 12.5 | 12.5 | – |
| KKLLKKWVKLKKKALKLAQSL-NH2 [S11K] | 12.5 | 12.5 | 12.5 | 12.5 | – |
| CC(C)C[C@H](NC(=O)[C@H](CO)NC(=O)[C@H](CC(C)C)NC(=O)[C@H](C)NC(=O)[C@H](CC(C)C)NC(=O)[C@H](CCCCN)NC(=O)[C@H](CC(C)C)NC(=O)[C@H](C)NC(=O)[C@H](CCCCN)NC(=O)[C@H](CCCCN)NC(=O)[C@H](CO)NC(=O)[C@H](CC(C)C)NC(=O)[C@H](CCCCN)NC(=O)[C@H](CC(C)C)NC(=O)[C@H](Cc1cccc2ccccc12)NC(=O)[C@H](CCCCN)NC(=O)[C@H](CCCCN)NC(=O)[C@H](CC(C)C)NC(=O)[C@H](CC(C)C)NC(=O)[C@H](CCCCN)NC(=O)[C@@H](N)CCCCN)C(N)=O [W71NalV8LQ19L] (H-KKLLKK[1Nal]LKLSKKALKLALSL-NH2) | 3.125 (≈ 7.69 µg/mL) | 3.125 (≈ 7.69 µg/mL) | 1.56 (≈ 3.84 µg/mL) | 1.56 (≈ 3.84 µg/mL) | – |
| KKLLKKWVKLLKKALKLAQSL-NH2 [S11L] | 12.5 | 12.5 | 6.25 | 6.25 | – |
| KKLLKKWLKLSKKALKLALS-NH2 [V8LQ19L C-1] | 3.125 | 3.125 | 3.125 | 3.125 | strong potency |
| KKLLKKWVKLSKKALKLLQSL-NH2 [A18L] | 6.25 | 6.25 | 3.125 | 3.125 | – |
| Ac-KKLLKKWVKLSKKALKLAQSL [Ac-E1AM2] | 25 | 25 | – | – | – |
| KKLLKKWKKLSKKALKLAQSL-NH2 [V8K] | 3.125 | 3.126 | 12.5 | 12.5 | – |
| CC(C)C[C@@H](NC(=O)[C@@H](CO)NC(=O)[C@@H](CC(C)C)NC(=O)[C@@H](C)NC(=O)[C@@H](CC(C)C)NC(=O)[C@@H](CCCCN)NC(=O)[C@@H](CC(C)C)NC(=O)[C@@H](C)NC(=O)[C@@H](CCCCN)NC(=O)[C@@H](CCCCN)NC(=O)[C@@H](CO)NC(=O)[C@@H](CC(C)C)NC(=O)[C@@H](CCCCN)NC(=O)[C@@H](CC(C)C)NC(=O)[C@@H](Cc1c[nH]c2ccccc12)NC(=O)[C@@H](CCCCN)NC(=O)[C@@H](CCCCN)NC(=O)[C@@H](CC(C)C)NC(=O)[C@@H](CC(C)C)NC(=O)[C@@H](CCCCN)NC(=O)[C@H](N)CCCCN)C(N)=O [D-V8LQ19L] (H-[dK][dK][dL][dL][dK][dK][dW][dL][dK][dL][dS][dK][dK][dA][dL][dK][dL][dA][dL][dS][dL]-NH2) | 3.125 (≈ 7.66 µg/mL) | 3.125 (≈ 7.66 µg/mL) | 3.125 (≈ 7.66 µg/mL) | 3.125 (≈ 7.66 µg/mL) | retains the strong anti-bacterial effects |
| CC(C)C[C@H](NC(=O)[C@H](CO)NC(=O)[C@H](CC(C)C)NC(=O)[C@H](C)NC(=O)[C@H](CC(C)C)NC(=O)[C@H](CCCCN)NC(=O)[C@H](CC(C)C)NC(=O)[C@H](C)NC(=O)[C@H](CCCCN)NC(=O)[C@H](CCCCN)NC(=O)[C@H](CO)NC(=O)[C@H](CC(C)C)NC(=O)[C@H](CCCCN)NC(=O)[C@H](CC(C)C)NC(=O)[C@H](Cc1ccc2ccccc2c1)NC(=O)[C@H](CCCCN)NC(=O)[C@H](CCCCN)NC(=O)[C@H](CC(C)C)NC(=O)[C@H](CC(C)C)NC(=O)[C@H](CCCCN)NC(=O)[C@@H](N)CCCCN)C(N)=O [W72NalV8LQ19L] (H-KKLLKK[2Nal]LKLSKKALKLALSL-NH2) | 1.56 (≈ 3.84 µg/mL) | 1.66 (≈ 4.09 µg/mL) | 1.56 (≈ 3.84 µg/mL) | 1.56 (≈ 3.84 µg/mL) | – |
| LKKWVKLSKKALKLAQSL-NH2 [E1AM2 N-3] | 12.5 | – | – | – | – |
| CC(C)C[C@H](NC(=O)[C@H](CO)NC(=O)[C@H](CC(C)C)NC(=O)[C@H](C)NC(=O)[C@H](CC(C)C)NC(=O)[C@H](CCCCN)NC(=O)[C@H](CC(C)C)NC(=O)C(C)(C)NC(=O)[C@H](CCCCN)NC(=O)[C@H](CCCCN)NC(=O)[C@H](CO)NC(=O)[C@H](CC(C)C)NC(=O)[C@H](CCCCN)NC(=O)[C@H](CC(C)C)NC(=O)[C@H](Cc1c[nH]c2ccccc12)NC(=O)[C@H](CCCCN)NC(=O)[C@H](CCCCN)NC(=O)[C@H](CC(C)C)NC(=O)[C@H](CC(C)C)NC(=O)[C@H](CCCCN)NC(=O)[C@@H](N)CCCCN)C(N)=O [V8LQ19LA14Aib] (H-KKLLKKWLKLSKK[Aib]LKLALSL-NH2) | 3.126 (≈ 7.7 µg/mL) | 6.25 (≈ 15.4 µg/mL) | 3.125 (≈ 7.7 µg/mL) | 6.25 (≈ 15.4 µg/mL) | – |
| LLKKWVKLSKKALKLAQSL-NH2 [E1AM2 N-2] | 25 | – | – | – | – |
| KKLLKKLLKLSKKALKLALSL-NH2 [W7LV8LQ19L] | 3.125 | 3.125 | 1.58 | 1.58 | – |
| KKLLKKWVKLSKKALKLAQS-NH2 [E1AM2 C-1] | >25 | – | – | – | – |

| Compound | MIC [1] [µM] | MBC [1] [µM] | MIC [2] [µM] | MBC [2] [µM] | anti-bacterial activity (in words) [1] |
| --- | --- | --- | --- | --- | --- |
| KKLLKKLVKLSKKALKLAQSL-NH2 [W7L] | 3.125 | 3.125 | 6.25 | 6.25 | reduced MIC against PA |
| Ac-KKLLKKWVKLSKKALKLAQSL-NH2 [Ac-E1AM2-NH2] | 12.5 | 12.5 | – | – | – |
| CC(C)C[C@H](NC(=O)[C@H](CO)NC(=O)[C@H](CC(C)C)NC(=O)C(C)(C)NC(=O)[C@H](CC(C)C)NC(=O)[C@H](CCCCN)NC(=O)[C@H](CC(C)C)NC(=O)C(C)(C)NC(=O)[C@H](CCCCN)NC(=O)[C@H](CCCCN)NC(=O)[C@H](CO)NC(=O)[C@H](CC(C)C)NC(=O)[C@H](CCCCN)NC(=O)[C@H](CC(C)C)NC(=O)[C@H](Cc1c[nH]c2ccccc12)NC(=O)[C@H](CCCCN)NC(=O)[C@H](CCCCN)NC(=O)[C@H](CC(C)C)NC(=O)[C@H](CC(C)C)NC(=O)[C@H](CCCCN)NC(=O)[C@@H](N)CCCCN)C(N)=O [V8LQ19LA1418Aib] (H-KKLLKKWLKLSKK[Aib]LKL[Aib]LSL-NH2) | 3.126 (≈ 7.75 µg/mL) | 3.125 (≈ 7.74 µg/mL) | 1.56 (≈ 3.87 µg/mL) | 1.56 (≈ 3.87 µg/mL) | – |
| KKLLKKWVKLSKKALKLAQKL-NH2 [S20K] | 25 | 25 | 25 | 25 | – |
| KKWVKLSKKALKLAQSL-NH2 [E1AM2 N-4] | >25 | – | – | – | – |
| KKLLKKKVKLSKKALKLAQSL-NH2 [W7K] | 12.5 | 12.5 | 12.5 | 25 | – |
| KKLLKKWVKLSKKKLKLAQSL-NH2 [A14K] | 12.5 | 12.5 | 12.5 | 12.5 | – |
| KKLLKKWVKLSKKAL-NH2 [E1AM2 C-6] | >25 | – | – | – | – |
| KWVKLSKKALKLAQSL-NH2 [E1AM2 N-5] | >25 | – | – | – | – |
| CC(C)C[C@H](NC(=O)[C@H](CO)NC(=O)[C@H](CC(C)C)NC(=O)[C@H](C)NC(=O)[C@H](CC(C)C)NC(=O)[C@H](CCCCN)NC(=O)[C@H](CC(C)C)NC(=O)[C@H](C)NC(=O)[C@H](CCCCN)NC(=O)[C@H](CCCCN)NC(=O)[C@H](CO)NC(=O)[C@H](CC(C)C)NC(=O)[C@H](CCCCN)NC(=O)[C@H](CC(C)C)NC(=O)[C@H](Cc1ccc(-c2ccccc2)cc1)NC(=O)[C@H](CCCCN)NC(=O)[C@H](CCCCN)NC(=O)[C@H](CC(C)C)NC(=O)[C@H](CC(C)C)NC(=O)[C@H](CCCCN)NC(=O)[C@@H](N)CCCCN)C(N)=O [W7BipV8LQ19L] (H-KKLLKK[Bip]LKLSKKALKLALSL-NH2) | 3.325 (≈ 8.27 µg/mL) | 3.125 (≈ 7.77 µg/mL) | 1.58 (≈ 3.93 µg/mL) | 1.56 (≈ 3.88 µg/mL) | – |
| KKLLKKWVKLSKKALKL-NH2 [E1AM2 C-4] | >12.5 | – | – | – | – |
| WVKLSKKALKLAQSL-NH2 [E1AM2 N-6] | >25 | – | – | – | – |
| CC(C)C[C@H](NC(=O)[C@H](CO)NC(=O)[C@H](CC(C)C)NC(=O)C(C)(C)NC(=O)[C@H](CC(C)C)NC(=O)[C@H](CCCCN)NC(=O)[C@H](CC(C)C)NC(=O)[C@H](C)NC(=O)[C@H](CCCCN)NC(=O)[C@H](CCCCN)NC(=O)[C@H](CO)NC(=O)[C@H](CC(C)C)NC(=O)[C@H](CCCCN)NC(=O)[C@H](CC(C)C)NC(=O)[C@H](Cc1c[nH]c2ccccc12)NC(=O)[C@H](CCCCN)NC(=O)[C@H](CCCCN)NC(=O)[C@H](CC(C)C)NC(=O)[C@H](CC(C)C)NC(=O)[C@H](CCCCN)NC(=O)[C@@H](N)CCCCN)C(N)=O [V8LQ19LA18Aib] (H-KKLLKKWLKLSKKALKL[Aib]LSL-NH2) | 3.125 (≈ 7.7 µg/mL) | 3.125 (≈ 7.7 µg/mL) | 1.58 (≈ 3.89 µg/mL) | 1.56 (≈ 3.84 µg/mL) | – |
| KKLLKKWVKLSKKALKLAQ-NH2 [E1AM2 C-2] | 25 | – | – | – | – |
| KKLLKKWVKLSKKALK-NH2 [E1AM2 C-5] | >25 | – | – | – | – |
| KLLKKWVKLSKKALKLAQSL-NH2 [E1AM2 N-1] | 12.5 | – | – | – | – |
